Assay results as given in the supplement of paper PMC10307832.

Assays:
Test in all cases: relative viability (nuclei count vs DMSO), 5 days (fraction); higher = more cells survive
Trametinib + Navitoclax = compound: CC(=O)Nc1cccc(-n2c(=O)n(C3CC3)c(=O)c3c(Nc4ccc(I)cc4F)n(C)c(=O)c(C)c32)c1 [Trametinib] + CC1(C)CCC(c2ccc(Cl)cc2)=C(CN2CCN(c3ccc(C(=O)NS(=O)(=O)c4ccc(N[C@H](CCN5CCOCC5)CSc5ccccc5)c(S(=O)(=O)C(F)(F)F)c4)cc3)CC2)C1 [Navitoclax] (partner 0.5 µM)
Method in brief: (§1)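 One day after seeding in 1536-well plates, lung cancer cell lines were dosed by pin tool. Dosing was either single-drug or a fixed anchor-drug dose plus five library-drug doses (not always all listed) in √10 steps. After 5 days, nuclei were stained in one fix-and-stain step and counted on 4× images, and relative viability is the nuclei count of treated wells over that of vehicle wells, given as the median of duplicate plates.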

Trametinib + Luminespib = compound: CC(=O)Nc1cccc(-n2c(=O)n(C3CC3)c(=O)c3c(Nc4ccc(I)cc4F)n(C)c(=O)c(C)c32)c1 [Trametinib] + CCNC(=O)c1noc(-c2cc(C(C)C)c(O)cc2O)c1-c1ccc(CN2CCOCC2)cc1 [Luminespib] (partner 0.01 µM)
Method in brief: as §1

[1] = compound: CN1C=C(C2=CC=CC=C21)/C=C\3/C4=C(C=CC=N4)NC3=O + C[C@]1(O)C[C@@H](c2nc(-c3ccc4ccc(-c5ccccc5)nc4c3)c3c(N)nccn32)C1 [Linsitinib] (partner 1 µM)
Method in brief: as §1

Trametinib + Tozasertib = compound: CC(=O)Nc1cccc(-n2c(=O)n(C3CC3)c(=O)c3c(Nc4ccc(I)cc4F)n(C)c(=O)c(C)c32)c1 [Trametinib] + Cc1cc(Nc2cc(N3CCN(C)CC3)nc(Sc3ccc(NC(=O)C4CC4)cc3)n2)n[nH]1 [Tozasertib] (partner 0.1 µM)
Method in brief: as §1

| Cell Line | relative viability (Trametinib + Navitoclax; first compound 0.0025 µM) | relative viability (Trametinib + Navitoclax; first compound 0.007906 µM) | relative viability (Trametinib + Navitoclax; first compound 0.025 µM) | relative viability (Trametinib + Navitoclax; first compound 0.07906 µM) | relative viability (Trametinib + Navitoclax; first compound 0.25 µM) | relative viability (Trametinib + Luminespib; first compound 0.0025 µM) | relative viability (Trametinib + Luminespib; first compound 0.007906 µM) | relative viability (Trametinib + Luminespib; first compound 0.025 µM) | relative viability (Trametinib + Luminespib; first compound 0.07906 µM) | relative viability (Trametinib + Luminespib; first compound 0.25 µM) | relative viability ([1]; first compound 0.02 µM) | relative viability ([1]; first compound 0.06325 µM) | relative viability ([1]; first compound 0.2 µM) | relative viability ([1]; first compound 0.6325 µM) | relative viability ([1]; first compound 2 µM) | relative viability (Trametinib + Tozasertib; first compound 0.0025 µM) | relative viability (Trametinib + Tozasertib; first compound 0.007906 µM) | relative viability (Trametinib + Tozasertib; first compound 0.025 µM) | relative viability (Trametinib + Tozasertib; first compound 0.07906 µM) | relative viability (Trametinib + Tozasertib; first compound 0.25 µM) |
| --- | --- | --- | --- | --- | --- | --- | --- | --- | --- | --- | --- | --- | --- | --- | --- | --- | --- | --- | --- | --- |
| NCI-H1651 | 1.02 | 0.943 | 0.933 | 0.844 | 0.778 | 0.866 | 0.736 | 0.749 | 0.791 | 0.654 | 0.958 | 0.989 | 1.03 | 1.06 | 1.05 | 0.666 | 0.555 | 0.541 | 0.526 | 0.498 |
| NCI-H1666 | 0.613 | 0.64 | 0.375 | 0.456 | 0.393 | 0.95 | 0.912 | 0.717 | 0.72 | 0.573 | 0.85 | 0.712 | 0.79 | 0.748 | 0.665 | 0.589 | 0.546 | 0.602 | 0.541 | 0.475 |
| NCI-H1734 | 0.865 | 0.736 | – | 0.657 | 0.474 | 0.208 | 0.169 | 0.173 | 0.149 | 0.15 | 0.803 | 0.853 | – | 1.09 | 0.889 | 0.255 | 0.243 | 0.216 | 0.203 | 0.205 |
| NCI-H1755 | 0.958 | 0.952 | 0.901 | 0.918 | 0.838 | 0.412 | 0.333 | 0.598 | 0.462 | 0.301 | 0.95 | 1.01 | 0.967 | 0.968 | 0.991 | 0.544 | 0.537 | 0.604 | 0.63 | 0.545 |
| NCI-H1793 | 0.36 | 0.345 | 0.265 | 0.216 | 0.133 | 0.304 | 0.159 | 0.142 | 0.173 | 0.17 | 1 | 1.06 | 0.748 | 0.95 | 0.884 | 0.281 | 0.226 | 0.253 | 0.164 | 0.205 |
| NCI-H1915 | 0.799 | 0.79 | 0.681 | 0.719 | 0.217 | 0.823 | 0.55 | 0.297 | 0.204 | 0.123 | 1.07 | 1.1 | 1.08 | 1.12 | 1.06 | 0.453 | 0.337 | 0.268 | 0.219 | 0.165 |
| NCI-H1944 | 0.916 | 0.71 | 0.544 | 0.664 | 0.49 | 0.624 | 0.489 | 0.429 | 0.377 | 0.22 | 1.19 | 1.18 | – | 1.32 | 1.23 | 0.262 | 0.21 | 0.185 | 0.185 | 0.177 |
| NCI-H1975 | 0.999 | 1 | 0.713 | 0.466 | 0.395 | 0.207 | 0.177 | 0.155 | 0.183 | 0.171 | 0.921 | 1.04 | 0.982 | 0.694 | 0.661 | 0.716 | 0.703 | 0.478 | 0.338 | 0.29 |
| NCI-H1993 | 0.794 | 0.748 | 0.65 | 0.764 | 0.774 | 0.74 | 0.693 | 0.749 | 0.528 | 0.578 | 0.539 | 0.635 | 0.71 | 0.765 | 0.621 | 0.539 | 0.498 | 0.568 | 0.558 | 0.459 |
| NCI-H2009 | 0.986 | 0.527 | 0.537 | 0.531 | 0.403 | 1.03 | 0.623 | 0.406 | 0.26 | 0.315 | 1.24 | 1.11 | 1.23 | 1.23 | 1.25 | 0.689 | 0.489 | 0.378 | 0.302 | 0.244 |
| NCI-H2023 | 0.864 | 0.825 | 0.877 | 0.549 | 0.33 | 0.582 | 0.403 | 0.51 | 0.575 | 0.197 | 0.615 | 0.657 | 0.628 | 0.665 | 0.692 | 0.232 | 0.262 | 0.26 | 0.232 | 0.199 |
| NCI-H2085 | 1.07 | 0.9 | 0.924 | 0.878 | 0.81 | 0.415 | 0.325 | 0.263 | 0.288 | 0.329 | 0.867 | 0.825 | 0.867 | 0.866 | 1.02 | 0.721 | 0.598 | 0.551 | 0.561 | 0.621 |
| NCI-H2087 | 0.718 | 0.406 | 0.244 | 0.223 | 0.257 | 0.17 | 0.137 | 0.137 | 0.141 | 0.148 | 0.82 | 0.708 | 1.02 | 0.944 | 1.23 | 0.189 | 0.166 | 0.111 | 0.12 | 0.108 |
| NCI-H2126 | 0.781 | 0.684 | 0.516 | 0.589 | 0.508 | 0.871 | 0.754 | 0.509 | 0.731 | 0.564 | 0.739 | 0.751 | 0.727 | 0.745 | 0.65 | 0.784 | 0.694 | 0.523 | 0.653 | 0.576 |
| NCI-H2228 | 0.782 | 0.803 | 0.706 | 0.626 | 0.548 | 0.15 | 0.0886 | 0.134 | 0.0863 | 0.112 | 0.53 | 0.463 | – | 0.603 | 0.759 | 0.239 | 0.209 | 0.207 | 0.211 | 0.132 |
| NCI-H2347 | 0.678 | 0.328 | 0.143 | 0.198 | 0.215 | 0.513 | 0.254 | 0.205 | 0.208 | 0.303 | 0.998 | 0.963 | 0.944 | 0.986 | 0.959 | 0.509 | 0.33 | 0.176 | 0.154 | 0.185 |
